Here are results for five compounds from USRE39113E1 (priority 1998, dated 2006).

SMILES strings stand for the structures.

In one test the test system is mouse's tail. The experiment in a line: animal or person. It is filed as in vivo, Swiss albino mice. Particulars: sc.
Test [1] concerns hot-plate assay in mouses. The experiment in a line: hot-plate assay in mice. Format: in vivo, Swiss albino mice. Particulars: ip, hot plate 55° C., licking of the paws. Here is the method: The analgesic activity of the products object of the invention have been studied in several assays using the Swiss albino mice as the experimental animal. The assay of contortions induced by phenylbenzoquinone, the hot-plate assay and the hot-point assay are now described. The examples that are presented by way of illustration describe some of the pharmacological assays and should not limit the scope of the invention in any way.
The hot-plate assay was carried out following the method described by M. Ocana et al. (Europ J. Pharmacol. 186: 377-378, 1990). The product under study was administered s.c. or i.p. and 30 minutes later the analgesic effect was registered. For this the animals were placed on a metallic surface kept at 50° C. or 55° C. and the time registered (latency) until the licked their hind legs and a jump. The analgesic activity was calculated at each dose, comparing the potency of the treated group with the control group. Using the results obtained the ED-50 was calculated.

For `C1=C(c2ccccc2)CCN(CCCCn2cccc2)C1` [Example 51a], it took a dose of 5 mg/kg to reach the 50% effect level with mouse's tail (ED50).

With `Clc1ccc(C2=CCN(CCCCn3ccnc3-c3ccccc3)CC2)cc1` [Example 63a], it took a dose of 70 mg/kg to reach the 50% effect level in the test on mouse's tail (ED50).

On to `Clc1ccc(C2=CCN(CCCCn3cc(Cl)cn3)CC2)cc1` [Example 47a], for which the “Δ Latency” value in test [1] (40 mg/kg) is 5 s.

As for `CC(C)=CCN1CCC2(C)c3cc(O)ccc3CC1C2C` (centres unmarked) [Pentazocine, reference compound], the “Δ Latency” value in test [1] (10 mg/kg) is 6 s.

`Brc1ccc(C2=CCN(CCCCn3cncn3)CC2)cc1` [Example 59a] registered an ED50 in the test with mouse's tail of 60 mg/kg.
